Legend:
[1] = test system: female antennae of sand fly Phlebotomus papatasi and mosquitoes Aedes aegypti, Anopheles gambiae, Anopheles stephensi; experiment: GC-EAD responses of sand fly and three mosquitoes to synthetic mixtures; settings: about 100 ng of each compound, on one or more of the sand fly or the mosquitoes, FIGS. 9 and 10
Outline: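 Female antennae recorded by GC-EAD (split with FID) against synthetic mixtures with about 100 ng of each compound, 1-octen-3-ol as positive control; polar Innowax column, 50° C 2 min then 10° C/min to 240° C. Effluent in humidified air at 0.5 liter/min over severed-head preparation with Ringer-filled electrodes.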

[2] = test system: Ae. aegypti and An. stephensi; experiment: K&D module bioassay, statements pooled for both mosquito species; type: in vivo, Aedes aegypti; Anopheles stephensi; settings: DEET at 10 μg/cm^2, oxide and ketone at similar or lower dosages as DEET, oils at about 10 mg/d release
Description: (§1) The bioassays were conducted with a six-cell in vitro K&D module system, as disclosed in Klun and Debboun, J. Med. Entomol. 37:177-181 (2000), loaded with an “artificial blood” (CPDA+ATP) solution.
Clove essential oil, patchouli oil, and EAD-active potential repellents, β-caryophyllene, isocaryophyllene, (+)-longifolene, and their 1:1:1 mixture, plus α-guaiene, caryophyllene oxide, and a β-caryophyllene ketone, were tested using the six-cell in vitro K&D module system (Klun and Debboun, J. Med. Entomol. 37:177-181 (2000)) loaded with an “artificial blood” (CPDA+ATP) solution on both Ae. aegypti and An. stephensi in a dose-response fashion. The K&D in vitro assay system has three components: (1) a Plexiglas™ 29.7 cm.×7.1 cm K&D module composed of six adjacent cells, each designed to hold mosquitoes and each having a rectangular 3×4 cm floor hole that is opened and closed by a sliding door; (2) a Plexiglas™ six-well 29.7 cm×7.1 cm water water-bath warmed (38° C.) reservoir with six 3×4 cm wells designed to match the sliding-door openings of the K&D module base and to contain 6 mL warmed “artificial blood” wells covered with a collagen membrane; and (3) a 29.7 cm×7.1 cm'0.4 cm Teflon® separator having six rectangular openings like the K&D module. The K&D module was connected to a constant temperature water circulator at 38° C. The cells were covered with an Edicol collagen membrane strip. Nylon organdy strips with ink cell patterns were numbered and randomly treated with five dilutions of the tested chemical in ethanol (ethanol alone as blank control), plus DEET (ca. 10 μg/cm^2) as a positive control. This treated nylon organdy strip was placed on top of the collagen membrane. The upper section of the K & D module with the six cells each containing 5 mosquitoes (5-10 d old, starved for 24 hr before testing) was placed on top of the nylon strip. […] The experiments were allowed to run for 3 minutes, and the number of mosquitoes feeding (biting) in each cell was recorded. […]

Phlebotomus papatasi = experiment: Y-tube olfactometer behavioral bioassay (spatial repellency); type: in vivo; settings: for SAI (Spatial Activity Index): Phlebotomus papatasi; for Number of mosquitoes in each arm: Repellent: Phlebotomus papatasi (sand fly) females, release rate per chemical (1-35 mg/day); for Number of mosquitoes in each arm: Repellent / Number of mosquitoes in each arm: Blank / Number of mosquitoes in each arm: Bottom: 10 min; for Number of mosquitoes in each arm: Blank / Number of mosquitoes in each arm: Bottom: Phlebotomus papatasi females, release rate per chemical
Description: (§2) Aegypti and An. stephensi, and one species of sand fly, P. papatasi. Both the mosquitoes and the sand flies used in the study were from colonies maintained at the Walter Reed Army Institute of Research, Department of Entomology, Silver Spring, Md. This Y-tube bioassay system, equipped with CO2-enriched air (ca. 1 l/min) as an attractant, was made from three clear acrylic tubes (4″ diameter; 12″ length) with symmetrical 120° angles among the three tube arms; and a screen butterfly valve on the top part of the bottom releasing tube. These spatial repellency tests were carried out during 8:00 am-12:00 pm (photophase) time period for Ae. aegypti and 1:00-5:00 pm (shifted scotophase) time period for the species of night-flying mosquitoes and sand fly in a temperature and humidity controlled testing room (23-25° C. and 20-40% RH). Female mosquitoes or sand flies were stored at ˜25-26° C., 50-89% RH, 12:12 hr. (L/D), fed with 10% sucrose solution before testing. The candidate chemical (individual or mixture) dispenser and a blank control were placed in the upper left or right arm of the Y-tube before releasing 25-40, 6 to 10 day-old female mosquitoes (or 3 to 10 day-old sand flies) into the bottom tube via a small hole. After a 30-60 sec acclimation period, the butterfly screen valve (door) on the top of the bottom tube was opened. After 10 min., the valve was closed and the numbers of mosquitoes or sand flies in each arm (including the bottom tube) were counted. In order to minimize the position effect, the same experiment was repeated once with the treatment and blank control arms shifted using a new (clean) Y-tube olfactometer and a new batch of mosquitoes/sand flies. Data from these two replicates were pooled for χ2 goodness of fit test (df=1) between the treatment and blank control.

Aedes aegypti [3] = experiment: as above; type: in vivo; settings: for Number of mosquitoes in each arm: Blank / Number of mosquitoes in each arm: Bottom / Number of mosquitoes in each arm: Repellent: Aedes aegypti females, release rate per chemical (1-60 mg/day), 10 min; for Number of mosquitoes in each arm: Repellent: two replicates pooled; for SAI (Spatial Activity Index): Aedes aegypti, (Nc − Nt)/(Nc + Nt), −1 to 1, zero indicating no response
Description: as §2

Anopheles stephensi [4] = experiment: as above; type: in vivo; settings: for Number of mosquitoes in each arm: Repellent / Number of mosquitoes in each arm: Blank / Number of mosquitoes in each arm: Bottom: Anopheles stephensi females, 10 min; for Number of mosquitoes in each arm: Repellent: release rate per chemical (1-60 mg/day; β-Caryophyllene 10 mg/day); for Number of mosquitoes in each arm: Blank / Number of mosquitoes in each arm: Bottom: release rate per chemical (β-Caryophyllene 10 mg/day); for SAI (Spatial Activity Index): Anopheles stephensi, β-Caryophyllene 10 mg/day
Description: as §2

Aedes aegypti [5] = experiment: K&D module behavioral bioassay (topical repellency, biting); type: in vivo
Description: as §1
(§3) Clove essential oil, patchouli oil, and EAD-active potential repellents, β-caryophyllene, isocaryophyllene, (+)-longifolene, and their 1:1:1 mixture, plus α-guaiene, caryophyllene oxide, and a β-caryophyllene ketone, were tested using the six-cell in vitro K&D module system (Klun and Debboun, J. Med. Entomol. 37:177-181 (2000)) loaded with an “artificial blood” (CPDA+ATP) solution on both Ae. aegypti and An. stephensi in a dose-response fashion. The K&D in vitro assay system has three components: (1) a Plexiglas™ 29.7 cm.×7.1 cm K&D module composed of six adjacent cells, each designed to hold mosquitoes and each having a rectangular 3×4 cm floor hole that is opened and closed by a sliding door; (2) a Plexiglas™ six-well 29.7 cm×7.1 cm water water-bath warmed (38° C.) reservoir with six 3×4 cm wells designed to match the sliding-door openings of the K&D module base and to contain 6 mL warmed “artificial blood” wells covered with a collagen membrane; and (3) a 29.7 cm×7.1 cm'0.4 cm Teflon® separator having six rectangular openings like the K&D module. The K&D module was connected to a constant temperature water circulator at 38° C. The cells were covered with an Edicol collagen membrane strip. Nylon organdy strips with ink cell patterns were numbered and randomly treated with […] of the tested chemical in ethanol (ethanol alone as blank control), plus DEET (ca. 10 μg/cm^2) as a positive control. This treated nylon organdy strip was placed on top of the collagen membrane. The upper section of the K & D module with the six cells each containing 5 mosquitoes (5-10 d old, starved for 24 hr before testing) was placed on top of the nylon strip. The doors to the cells were slid open so the mosquitoes could be free to feed on the “artificial blood” via the collagen membrane if they were hungry. The experiments were allowed to run for 3 minutes, and the number of mosquitoes feeding (biting) in each cell was recorded. After each experiment, the nylon and collagen strips were removed. The CPDA+ATP solution was removed and allowed to dry prior to starting the next experiment. The experiments on each chemical and each mosquito species were run three times before the bottom section with circulated water was cleaned prior to use again.

Anopheles stephensi [6] = experiment: as above; type: in vivo
Description: as §1, §3

[7] = test system: male false stable fly Muscina stabulans antenna and female mosquito Aedes (Ochlerotatus) increpitus Dyar antenna; experiment: GC-EAD responses of false stable fly and Aedes increpitus to a synthetic mixture; settings: about 100 ng of each compound, FIG. 5
Description: The GC-EAD responses of the male false stable fly Muscina stabulans antenna and the female mosquito Aedes (Ochlerotatus) increpitus Dyar antenna were tested on a synthetic mixture of linalool and two representative sesquiterpene hydrocarbons, β-caryophyllene and α-humulene, and one sesquiterpene oxide, β-caryophyllene oxide, with about 100 ng of each compound in the mixture.
The following procedures were employed to test the EAD response of an insect antenna to a repellent compound. The GC-EAD technique provides an efficient tool for screening behaviorally active repellents. Several synthetic mixtures of potential insect repellent candidates, mostly sesquiterpene hydrocarbons and derivatives, were analyzed in splitless mode using a Varian CP-3800 GC equipped with a polar column (Innowax; 1.0 μm film thickness, 30 m×0.53 mm ID; J & W Scientific), and a 1:1 effluent splitter that allowed simultaneous flame ionization detection (FID) and EAD of the separated volatile compounds. Helium was used as the carrier gas, and the injector temperature was 220° C. The column temperature was 50° C. for 2 min, rising to 240° C. at 10° C./min, then held for 10 min. The outlet for the EAD was held in a humidified air stream flowing at 0.5 liter/min. over an antennal preparation. A glass capillary indifferent electrode filled with Beadle-Ephrussi Ringer, and grounded via a silver wire, was inserted into the severed insect's head with the antennae. A similar recording electrode connected to a high-impedance DC amplifier with automatic baseline drift compensation was placed in contact with the distal end of one antenna (Zhang et al., Chemoecology, 10:69-80 (2000)). The antennal signals were stored and analyzed on a PC equipped with a serial IDAC interface box and the program EAD ver. 2.5 (Syntech, Hilversum, The Netherlands). The compound 1-octen-3-ol (known attractant for many flies and mosquitoes) was included in most of the synthetic mixtures, as a positive control. The results of the experiments are shown in FIGS. 1-10 and described above.

[8] = 10 μg/cm^2, DEET values are the positive control run with the chemical

CCN(CC)C(=O)c1cccc(C)c1 [DEET, N,N-diethyl-m-toluamide, reference compound]
GC-EAD antennal activity [1]: does not appear to have elicited antennal activity
topical repellency / feeding deterrence, in words [2]: significantly inhibited/blocked the feeding (biting) activity

C=C1CC[C@H]2O[C@]2(C)CC[C@@H]2[C@@H]1CC2(C)C [β-Caryophyllene Oxide, β-Caryophyllene oxide]
SAI (Spatial Activity Index) (Phlebotomus papatasi): 0.91
Number of mosquitoes in each arm: Repellent (Phlebotomus papatasi): 4
Number of mosquitoes in each arm: Blank (Phlebotomus papatasi): 83
Number of mosquitoes in each arm: Bottom (Phlebotomus papatasi): 5
Number of mosquitoes in each arm: Blank (Aedes aegypti [3]): 38
Number of mosquitoes in each arm: Bottom (Aedes aegypti [3]): 26
Number of mosquitoes in each arm: Repellent (Aedes aegypti [3]): 15
SAI (Spatial Activity Index) (Aedes aegypti [3]): 0.43
Number of mosquitoes in each arm: Repellent (Anopheles stephensi [4]): 15
Number of mosquitoes in each arm: Blank (Anopheles stephensi [4]): 24
Number of mosquitoes in each arm: Bottom (Anopheles stephensi [4]): 23
SAI (Spatial Activity Index) (Anopheles stephensi [4]): 0.23
GC-EAD antennal activity [1]: antennally active
% of biting (±SE) (N = 3) (Aedes aegypti [5]; 1 μg/cm^2, 3 minutes): 27 ± 7b %
% of biting (±SE) (N = 3) (Aedes aegypti [5]; 5 μg/cm^2): 27 ± 7b %
% of biting (±SE) (N = 3) (Aedes aegypti [5]; [8]): 0 ± 0a %
% of biting (±SE) (N = 3) (Aedes aegypti [5]; 50 μg/cm^2): 0 ± 0a %
% of biting (±SE) (N = 3) (Anopheles stephensi [6]; 1 μg/cm^2, 3 minutes): 27 ± 13abc %
% of biting (±SE) (N = 3) (Anopheles stephensi [6]; 5 μg/cm^2): 47 ± 7bc %
% of biting (±SE) (N = 3) (Anopheles stephensi [6]; [8]): 20 ± 12ab %
% of biting (±SE) (N = 3) (Anopheles stephensi [6]; 50 μg/cm^2): 0 ± 0a %
topical repellency / feeding deterrence, in words [2]: even stronger topical repellency
GC-EAD antennal activity [7]: active on at least one of the insects tested

C/C1=C\CCC(=O)[C@H]2CC(C)(C)[C@@H]2CC1 [β-Caryophyllene Ketone, β-caryophyllene ketone]
SAI (Spatial Activity Index) (Phlebotomus papatasi): 0.18
Number of mosquitoes in each arm: Repellent (Phlebotomus papatasi): 20
Number of mosquitoes in each arm: Blank (Phlebotomus papatasi): 29
Number of mosquitoes in each arm: Bottom (Phlebotomus papatasi): 23
Number of mosquitoes in each arm: Blank (Aedes aegypti [3]): 37
Number of mosquitoes in each arm: Bottom (Aedes aegypti [3]): 20
Number of mosquitoes in each arm: Repellent (Aedes aegypti [3]): 28
SAI (Spatial Activity Index) (Aedes aegypti [3]): 0.14
Number of mosquitoes in each arm: Repellent (Anopheles stephensi [4]): 10
Number of mosquitoes in each arm: Blank (Anopheles stephensi [4]): 18
Number of mosquitoes in each arm: Bottom (Anopheles stephensi [4]): 32
SAI (Spatial Activity Index) (Anopheles stephensi [4]): 0.29
% of biting (±SE) (N = 3) (Aedes aegypti [5]; 1 μg/cm^2, 3 minutes): 20 ± 0bc %
% of biting (±SE) (N = 3) (Aedes aegypti [5]; 5 μg/cm^2): 13 ± 7ab %
% of biting (±SE) (N = 3) (Aedes aegypti [5]; [8]): 7 ± 7ab %
% of biting (±SE) (N = 3) (Aedes aegypti [5]; 50 μg/cm^2): 0 ± 0a %
% of biting (±SE) (N = 3) (Anopheles stephensi [6]; 1 μg/cm^2, 3 minutes): 47 ± 7cd %
% of biting (±SE) (N = 3) (Anopheles stephensi [6]; 5 μg/cm^2): 33 ± 7bc %
% of biting (±SE) (N = 3) (Anopheles stephensi [6]; [8]): 20 ± 12ab %
% of biting (±SE) (N = 3) (Anopheles stephensi [6]; 50 μg/cm^2): 0 ± 0a %
topical repellency / feeding deterrence, in words [2]: even stronger topical repellency
